Assay [1] relates to human multiple myeloma cell line (NCI-H929). As to the kind of experiment: In vitro cell growth inhibition assay (WST-1) with isobologram analysis of combination effect. The assay is classed as cell-based. The settings on record: combined with the test compound (hydrochloride of Compound 22), 72 hours, isobologram method. As to the method:
(§1) Measurement of the cell growth inhibition rate of the test compound and a combined compound on a human multiple myeloma cell line (NCI-H929), a human non-small-cell lung cancer cell line (PC-9), a human breast cancer cell line (BT-474), a human renal cancer cell line (VMRC-RCZ), a human chronic myeloid leukemia cell line (K-562) and a human acute myeloid leukemia cell line (MOLM-13) was carried out in the following manner.
(§2) For the culture of NCI-H929, Roswell Park Memorial Institute's Medium (RPMI) 1640 medium (Invitrogen) containing 10% fetal calf serum (FCS, Invitrogen), 10 mmol/L HEPES (Invitrogen), 1 mmol/L sodium pyruvate (Invitrogen), 4.5 g/L glucose (Sigma-Aldrich) and 50 μmol/L 2-mercaptoethanol (Invitrogen) was used. For the culture of PC-9, RPMI1640 medium containing 10% FCS was used. For the culture of BT-474, Dulbecco's Modified Eagle Medium (DMEM) (Invitrogen) containing 10% FCS, 1 mmol/L sodium pyruvate, 1.2 mmol/L oxalacetic acid (Sigma-Aldrich), 0.01 mg/mL insulin (Sigma-Aldrich), 10% NCTC-135 medium (Sigma-Aldrich), 4 mmol/L L-glutamine (Invitrogen), 1.5 g/L sodium hydrogencarbonate (Invitrogen) and 4.5 g/L glucose was used.
(§3) NCI-H929 cells were suspended to 12.5×10^4 cells/mL with culture medium (PC-9, 0.625×10^4 cells/mL; BT-474, 12.5×10^4 cells/mL; VMRC-RCZ, 2.5×10^4 cells/mL; MOLM-13, 12.5×10^4 cells/mL; K-562, 6.25×10^4 cells/mL), and the cell suspensions were seeded to the wells of 96-well U-bottom plates (Nalge Nunc International) in an amount of 80 μL/well, followed by incubation in a 5% CO2 incubator at 37° C. for 5 hours (PC-9, BT-474 and VMRC-RCZ, 24 hours; MOLM-13 and K-562, 4 hours).
(§4) The solutions of the test compound and the combined compound diluted with culture medium were added to the plates in an amount of 10 μL/well, respectively, followed by further incubation in a 5% CO2 incubator at 37° C. for 72 hours. WST-1 reagent {4-[3-(4-iodophenyl)-2-(4-nitrophenyl)-2H-5-tetrazolio]-1,3-benzene disulfonate sodium salt} (Roche Diagnostics) was added to the wells in an amount of 10 μL/well and the plates were incubated in a CO2 incubator for 2 hours at 37° C. The absorbance at 450 nm (control wavelength: 655 nm) was measured using a microplate spectrophotometer SPECTRA max 340PC (Molecular Devices). Separately, the solvent used for preparation of each compound solution alone was added to the wells, and the absorbance was measured in the same manner as above after 72-hour incubation carried out in the same manner as above and also immediately after the addition of the solvent. The cell growth inhibition rate on the cells in the compound-added groups (groups treated with the test compound alone, the combined compound alone, or both compounds) was calculated according to the following equation.
(§5) The combined effect was analyzed using the isobologram method [International Journal of Radiation Oncology, Biology, Physics, Vol. 5, p. 85 (1979)]. Judgment of the efficacy of combination therapy was carried out according to the method described in International Journal of Radiation Oncology, Biology, Physics, Vol. 5, p. 85 (1979), Ibid., Vol. 5, p. 1145 (1979), etc.
(In general: Tetrazolium dyes change colour on reduction, which living cells bring about.)

Assay [2] concerns human non-small-cell lung cancer cell line (PC-9). The assay is described as above. The assay is classed as cell-based. The following applies: combined with the test compound (hydrochloride of Compound 22), 72 hours, isobologram method. The procedure:
as §1, §2, §3, §4, §5

The test system of assay [3] is human breast cancer KPL-4 cells. Put plainly: Antitumor effect in a mouse model transplanted with human breast cancer KPL-4 cells. The assay is classed as in vivo, BALB/cAJcl-nu mice. The settings on record: day 10; test compound 100 mg/kg i.v. twice a day x 5 days; paclitaxel 25 mg/kg i.v. days 0 and 3; trastuzumab 50 mg/kg i.v. days 0, 3, 7, 10, 14 and 17.
Protocol: KPL-4 cells were cultured in DMEM containing 10% fetal calf serum (FCS) in a 5% CO2 incubator at 37° C. and then transplanted into the abdominal subcutaneous tissue of BALB/cAJcl-nu mice (Clea Japan, Inc.) in an amount of 1×10^7 cells/mouse. From the mice in which tumor grew, the tumor was excised and the tumor tissue was cut into ca. 8 mm^3 tissue pieces and then transplanted into the abdominal subcutaneous tissue of BALB/cAJcl-nu mice (Clea Japan, Inc.) using a trocar. Eighteen days after the transplantation, the longer diameter and shorter diameter of the subcutaneous tumor were measured with slide calipers, and the tumor volume was calculated according to the following equation.
(§8) At the same time, the body weight of each mouse was measured, and the mice were divided into the following groups of 5 mice each so that the mean tumor volume and the mean body weight become uniform. The day was defined as day 0 of the administration test, and administration was started.
The test compound was dissolved in physiological saline (Otsuka Pharmaceutical Co., Ltd.) at a concentration of 10 mg/mL and intravenously administered from the caudal vein in a dose of 0.01 mL/g body weight of mouse (100 mg/kg) twice a day for consecutive days from day 0 to day 4. […]
Assay [4] concerns human multiple myeloma NCI-H929 cells. Put plainly: Antitumor effect in a mouse model transplanted with human multiple myeloma NCI-H929 cells (combination with melphalan). The format is in vivo, Fox C.B-17/Icr-scidJcl mice. The settings on record: day 14; test compound 50 mg/kg i.v. on days 0, 3, 7 and 10; melphalan 4 mg/kg i.v. on day 0. As to the method: On the day before the transplantation of cancer cells, 0.3 mg/mouse of an anti-asialo GM1 antibody (ca. 10 mg protein/1 mL vial) (Wako Pure Chemical Industries, Ltd.) was intraperitoneally administered to Fox C.B-17/Icr-scidJcl mice (Clea Japan, Inc.). NCI-H929 cells were cultured in RPMI1640 medium containing 10% fetal calf serum (FCS) in a 5% CO2 incubator at 37° C. and then transplanted into the abdominal subcutaneous tissue of the mice in an amount of 1×10^7 cells/mouse.
The day was defined as day 0 of the administration test, and administration was started.
The test compound was dissolved in physiological saline (Otsuka Pharmaceutical Co., Ltd.) at a concentration of 5 mg/mL and intravenously administered from the caudal vein in a dose of 0.01 mL/g body weight of mouse (50 mg/kg) once a day on days 0, 3, 7 and 10.
Melphalan was suspended in physiological saline (Otsuka Pharmaceutical Co., Ltd.) at a concentration of 0.4 mg/mL and intravenously administered from the caudal vein in a dose of 0.01 mL/g body weight of mouse (4 mg/kg) once a day on day 0. • A. Negative control group (Control): neither test compound nor melphalan administered • B. Test compound alone group: 50 mg/kg (once a day/administered on days 0, 3, 7 and 10) • C. […]
On and after day 0, the tumor volume was measured twice a week. […]

The subject of assay [5] is human chronic myeloid leukemia cell line (K-562). Put plainly: In vitro cell growth inhibition assay (WST-1) with isobologram analysis of combination effect. The assay is classed as cell-based. The following applies: combined with the test compound (hydrochloride of Compound 22), 72 hours, isobologram method. As to the method:
as §1
(§6) For the culture of VMRC-RCZ, Minimum Essential Medium (MEM) (Invitrogen) containing 10% FCS, 0.1 mmol/L Non-Essential Amino Acids (NEAA, Invitrogen), 4 mmol/L HEPES, 2 mmol/L L-glutamine and 1.5 g/L sodium hydrogencarbonate was used. For the culture of K-562, Iscove's Modified Dulbecco's Medium (IMDM) (Invitrogen) containing 10% FCS was used. For the culture of MOLM-13, RPMI1640 medium containing 10% FCS was used.
(§7) NCI-H929 cells were suspended to 12.5×10^4 cells/mL with culture medium (PC-9, 0.625×10^4 cells/mL; BT-474, 12.5×10^4 cells/mL; VMRC-RCZ, 2.5×10^4 cells/mL; MOLM-13, 12.5×10^4 cells/mL; K-562, 6.25×10^4 cells/mL), and the cell suspensions were seeded to the wells of 96-well U-bottom plates (Nalge Nunc International) in an amount of 80 μL/well, followed by incubation in a 5% CO2 incubator at 37° C. for 5 hours (PC-9, BT-474 and VMRC-RCZ, 24 hours; MOLM-13 and K-562, 4 hours). […]

In assay [6] the test system is human lung cancer NCI-H596 cells. As to the kind of experiment: Antitumor effect in a mouse model transplanted with human lung cancer NCI-H596 cells. The following applies: day 11; test compound 100 mg/kg i.v. twice a day x 5 days; gefitinib 100 mg/kg oral once a day x 5 days. The assay is classed as in vivo, BALB/cAJcl-nu mice.
Assay [7] deals with human renal cancer cell line (VMRC-RCZ). Put plainly: In vitro cell growth inhibition assay (WST-1) with isobologram analysis of combination effect. The format is cell-based. The settings on record: combined with the test compound (hydrochloride of Compound 22), 72 hours, isobologram method. The procedure: as §1
For the culture of VMRC-RCZ, Minimum Essential Medium (MEM) (Invitrogen) containing 10% FCS, 0.1 mmol/L Non-Essential Amino Acids (NEAA, Invitrogen), 4 mmol/L HEPES, 2 mmol/L L-glutamine and 1.5 g/L sodium hydrogencarbonate was used. […]
The solutions of the test compound and the combined compound diluted with culture medium were added to the plates in an amount of 10 μL/well, respectively, followed by further incubation in a 5% CO2 incubator at 37° C. for 72 hours. […] The absorbance at 450 nm (control wavelength: 655 nm) was measured using a microplate spectrophotometer SPECTRA max 340PC (Molecular Devices). Separately, the solvent used for preparation of each compound solution alone was added to the wells, and the absorbance was measured in the same manner as above after 72-hour incubation carried out in the same manner as above and also immediately after the addition of the solvent. […]

Assay [8] deals with human acute myeloid leukemia cell line (MOLM-13). The description is as above. The format is cell-based. The settings on record: combined with the test compound (hydrochloride of Compound 22), 72 hours, isobologram method. As to the method:
as §1, §6, §7

Assay [9] concerns human multiple myeloma NCI-H929 cells. As to the kind of experiment: Antitumor effect in a mouse model transplanted with human multiple myeloma NCI-H929 cells (combination with bortezomib). The assay is classed as in vivo, Fox C.B-17/Icr-scidJcl mice. The following applies: day 14; test compound 50 mg/kg i.v. and bortezomib 1 mg/kg i.v., once a day on days 0, 3, 7 and 10.
Protocol: On the day before the transplantation of cancer cells, 0.3 mg/mouse of an anti-asialo GM1 antibody (ca. 10 mg protein/1 mL vial) (Wako Pure Chemical Industries, Ltd.) was intraperitoneally administered to Fox C.B-17/Icr-scidJcl mice (Clea Japan, Inc.). NCI-H929 cells were cultured in RPMI1640 medium containing 10% fetal calf serum (FCS) in a 5% CO2 incubator at 37° C. and then transplanted into the abdominal subcutaneous tissue of the mice in an amount of 1×10^7 cells/mouse. Ten days after the transplantation, the longer diameter and shorter diameter of the tumor subcutaneously grown were measured with slide calipers, and the tumor volume was calculated according to the following equation.
as §8
The test compound was dissolved in physiological saline (Otsuka Pharmaceutical Co., Ltd.) at a concentration of 5 mg/mL and intravenously administered from the caudal vein in a dose of 0.01 mL/g body weight of mouse (50 mg/kg) once a day on days 0, 3, 7 and 10. […]
Assay [10] relates to human breast cancer cell line (BT-474). As to the kind of experiment: In vitro cell growth inhibition assay (WST-1) with isobologram analysis of combination effect. The assay is classed as cell-based. The settings on record: combined with the test compound (hydrochloride of Compound 22), 72 hours, isobologram method. As to the method:
as §1, §3
The solutions of the test compound and the combined compound diluted with culture medium were added to the plates in an amount of 10 μL/well, respectively, followed by further incubation in a 5% CO2 incubator at 37° C. for 72 hours. WST-1 reagent {4-[3-(4-iodophenyl)-2-(4-nitrophenyl)-2H-5-tetrazolio]-1,3-benzene disulfonate sodium salt} (Roche Diagnostics) was added to the wells in an amount of 10 μL/well and the plates were incubated in a CO2 incubator for 2 hours at 37° C.

Molecules are shown by their SMILES.

Regarding `Nc1cccc2c1CN(C1CCC(=O)NC1=O)C2=O` (stereo not shown) [Lenalidomide, lenalidomide], the “Combination effect of test compound and each compound” value (shortened to “Combination effect”) in assay [1] is recorded as “Envelope of additivity”. Take `CC(=O)O[C@H]1C(=O)[C@@]2(C)[C@H]([C@H](OC(=O)c3ccccc3)[C@]3(O)C[C@H](OC(=O)[C@H](O)[C@@H](NC(=O)c4ccccc4)c4ccccc4)C(C)=C1C3(C)C)[C@]1(OC(C)=O)CO[C@@H]1C[C@@H]2O` [Paclitaxel, paclitaxel]: in assay [2], the “Combination effect” value is recorded as “Envelope of additivity”. Moreover, the “T/C (V/V0 of each group divided by V/V0 of the negative control group)” value in assay [3] is recorded as 0.094. For `N[C@@H](Cc1ccc(N(CCCl)CCCl)cc1)C(=O)O` [Melphalan, melphalan], in assay [1], the “Combination effect” value is listed as “Envelope of additivity”. Also, the “T/C (V/V0 of each group divided by V/V0 of the negative control group)” value in assay [4] is 0.63. `Cc1ccc(NC(=O)c2ccc(CN3CCN(C)CC3)cc2)cc1Nc1nccc(-c2cccnc2)n1` [Imatinib, imatinib]: the “Combination effect” value in assay [5] is “Sub-additive”.

Take `COc1cc2ncnc(Nc3ccc(F)c(Cl)c3)c2cc1OCCCN1CCOCC1` [Gefitinib, gefitinib]: the “T/C (V/V0 of each group divided by V/V0 of the negative control group)” value in assay [6] is on record as 0.74. For the same compound, the “Combination effect” value in assay [2] is on record as “Envelope of additivity”. As to `CC(=O)O[C@@]12CO[C@@H]1C[C@H](O)[C@@]1(C)C(=O)[C@H](O)C3=C(C)[C@@H](OC(=O)[C@H](O)[C@@H](NC(=O)OC(C)(C)C)c4ccccc4)C[C@@](O)([C@@H](OC(=O)c4ccccc4)[C@H]21)C3(C)C` [Docetaxel, docetaxel], in assay [2], the “Combination effect” value is reported as “Envelope of additivity”. As for `O=C(CCCCCCC(=O)Nc1ccccc1)NO` [Vorinostat, vorinostat], the “Combination effect” value in assay [1] was “Sub-additive”. Consider `CNC(=O)c1cc(Oc2ccc(NC(=O)Nc3ccc(Cl)c(C(F)(F)F)c3)cc2)ccn1` [Sorafenib, sorafenib], for which the “Combination effect” value in assay [7] was “Supra-additive”. For the compound `Nc1ccn([C@@H]2O[C@H](CO)[C@@H](O)[C@@H]2O)c(=O)n1` [Cytarabine, cytarabine], the “Combination effect” value in assay [8] was “Envelope of additivity”. In the case of `CC(C)C[C@H](NC(=O)[C@H](Cc1ccccc1)NC(=O)c1cnccn1)B(O)O` [Bortezomib, bortezomib], the “T/C (V/V0 of each group divided by V/V0 of the negative control group)” value in assay [9] was 0.45. For the same compound, the “Combination effect” value in assay [1] is listed as “Envelope of additivity”.

In the case of `CS(=O)(=O)CCNCc1ccc(-c2ccc3ncnc(Nc4ccc(OCc5cccc(F)c5)c(Cl)c4)c3c2)o1` [Lapatinib, lapatinib], in assay [10], the “Combination effect” value is “Envelope of additivity”. Turning to `C#Cc1cccc(Nc2ncnc3cc(OCCOC)c(OCCOC)cc23)c1` [Erlotinib, erlotinib], the “Combination effect” value in assay [2] was “Sub-additive”.

The values above are taken from patent publication US20100098690A1, “PHARMACEUTICAL COMPOSITION” (KYOWA HAKKO KIRIN CO., LTD., priority 2007, published 2010).
